We go through 28 molecules from patent US11345712B2, “Protein-targeting compounds and pharmaceutical compositions thereof, and their therapeutic applications” (BioTheryX, Inc., priority 2019, dated 2022).

The subject of the data set is MOLM-13 cells. In words: MOLM-13 cell viability assay (CellTiter-Glo). It counts as cell-based. The following applies: 3 days, concentration of 1 μM; for cytotoxicity at 1 µM: Homo sapiens, MOLM-13, 72 h, read-out: Antiproliferative Activity (inhibition, MOLM-13 cell viability). As to the method: MOLM-13 cells were cultured in RPMI 1640 media supplemented with 10% fetal bovine serum, streptomycin, and penicillin. The cells were plated in white walled 96-well plates at 2,500 cells/well. The cells were incubated in DMSO (control) or an indicated compound for 3 days at 37° C. and 5% CO2. Following the incubation period, 100 μL of CELLTITER-GLO® (CTG) reagent was added to each well. Following a 10 minutes incubation with shaking, luminescence was measured using an ENVISION® Multimode plate reader.

Structures are written as SMILES. A value given as a limit tells only on which side of the number the result lay.

As for `CN(Cc1ccc2c(c1)CN(C1CCC(=O)NC1=O)C2=O)C(=O)C(=O)c1ccc(C(C)(C)C)cc1` (stereo not shown) [Compound I-34, 2-(4-(tert-butyl)phenyl)-N-((2-(2,6-dioxopiperidin-3-yl)-1-oxoisoindolin-5-yl)methyl)-N-methyl-2-oxoacetamide], the cytotoxicity at 1 µM was < 25%.
Regarding `CC(C)(C)c1ccc(C(=O)C(=O)NCc2cc3c(s2)C(=O)N(C2CCC(=O)NC2=O)C3)cc1` (stereo not shown) [Compound I-35, 2-(4-(tert-butyl)phenyl)-N-((5-(2,6-dioxopiperidin-3-yl)-6-oxo-5,6-dihydro-4H-thieno[2,3-c]pyrrol-2-yl)methyl)-2-oxoacetamide], the “Antiproliferative Activity (inhibition, MOLM-13 cell viability)” value is recorded as “D (a value less than 25% inhibition)”.
For `CC(c1ccc(C(=O)C(=O)NCc2scc3c2CN(C2CCC(=O)NC2=O)C3=O)cc1)C(F)(F)F` (stereo not shown) [Compound I-36, N-((5-(2,6-dioxopiperidin-3-yl)-4-oxo-5,6-dihydro-4H-thieno[3,4-c]pyrrol-1-yl)methyl)-2-oxo-2-(4-(1,1,1-trifluoropropan-2-yl)phenyl)acetamide], the cytotoxicity at 1 µM lay within 25 to 50%.
For the molecule `CC(C)c1ccc(C(=O)C(=O)NCc2ccc3c(c2)CN(C2CCC(=O)NC2=O)C3=O)s1` (stereo not shown) [Compound I-37, N-((2-(2,6-dioxopiperidin-3-yl)-1-oxoisoindolin-5-yl)methyl)-2-(5-isopropylthiophen-2-yl)-2-oxoacetamide], the cytotoxicity at 1 µM is > 80%.
Still for that read-out and setting: to `CC(C)(C)c1ccc(C(=O)C(=O)NCc2cccc3c2C(=O)N(C2CCC(=O)NC2=O)C3)cc1` (stereo not shown) [Compound I-38, 2-(4-(tert-butyl)phenyl)-N-((2-(2,6-dioxopiperidin-3-yl)-3-oxoisoindolin-4-yl)methyl)-2-oxoacetamide] belongs < 25%; to `CC(C)(C)c1ccc(C(=O)C(=O)NCc2csc3c2CN(C2CCC(=O)NC2=O)C3=O)cc1` (stereo not shown) [Compound I-39, 2-(4-(tert-butyl)phenyl)-N-((5-(2,6-dioxopiperidin-3-yl)-6-oxo-5,6-dihydro-4H-thieno[2,3-c]pyrrol-3-yl)methyl)-2-oxoacetamide], > 80%.
For the molecule `CC(C)(C)c1ccc(C(=O)C(=O)NCc2scc3c2CN(C2CCC(=O)NC2=O)C3=O)cc1` (stereo not shown) [Compound I-40, 2-(4-(tert-butyl)phenyl)-N-((5-(2,6-dioxopiperidin-3-yl)-4-oxo-5,6-dihydro-4H-thieno[3,4-c]pyrrol-1-yl)methyl)-2-oxoacetamide], the “Antiproliferative Activity (inhibition, MOLM-13 cell viability)” value is on record as “D (a value less than 25% inhibition)”.
`CC(C)(C)c1ccc(C(=O)C(=O)NCCc2scc3c2CN(C2CCC(=O)NC2=O)C3=O)cc1` (stereo not shown) [Compound I-41, 2-(4-(tert-butyl)phenyl)-N-(2-(5-(2,6-dioxopiperidin-3-yl)-4-oxo-5,6-dihydro-4H-thieno[3,4-c]pyrrol-1-yl)ethyl)-2-oxoacetamide]: the cytotoxicity at 1 µM is > 80%.
Turning to `CC1(c2ccc(C(=O)C(=O)NCc3scc4c3CN(C3CCC(=O)NC3=O)C4=O)cc2)CC1` (stereo not shown) [Compound I-42, N-((5-(2,6-dioxopiperidin-3-yl)-4-oxo-5,6-dihydro-4H-thieno[3,4-c]pyrrol-1-yl)methyl)-2-(4-(1-methylcyclopropyl)phenyl)-2-oxoacetamide], the cytotoxicity at 1 µM fell in the range of 50 to 80%.
On to `CC(C)(CO)c1ccc(C(=O)C(=O)NCc2scc3c2CN(C2CCC(=O)NC2=O)C3=O)cc1` (stereo not shown) [Compound I-43, N-((5-(2,6-dioxopiperidin-3-yl)-4-oxo-5,6-dihydro-4H-thieno[3,4-c]pyrrol-1-yl)methyl)-2-(4-(1-hydroxy-2-methylpropan-2-yl)phenyl)-2-oxoacetamide], for which the cytotoxicity at 1 µM was < 25%.
With `Cc1ccc(C(=O)C(=O)NCc2scc3c2CN(C2CCC(=O)NC2=O)C3=O)cc1N(C)C` (stereo not shown) [Compound I-44, 2-(3-(dimethylamino)-4-methylphenyl)-N-((5-(2,6-dioxopiperidin-3-yl)-4-oxo-5,6-dihydro-4H-thieno[3,4-c]pyrrol-1-yl)methyl)-2-oxoacetamide], the cytotoxicity at 1 µM was > 80%.
Consider `CC(C)(C)c1ccc(C(=O)C(=O)NCc2cc3c(s2)C(=O)N(C2CCC(=O)NC2=O)C3)cc1` (stereo not shown) [Compound I-45, 2-(4-(tert-butyl)phenyl)-N-((5-(2,6-dioxopiperidin-3-yl)-6-oxo-5,6-dihydro-4H-thieno[2,3-c]pyrrol-2-yl)methyl)-2-oxoacetamide], for which the “Antiproliferative Activity (inhibition, MOLM-13 cell viability)” value was “B (a value less than 80% but no less than 50%)”.
Turning to `CC(C)(C)c1cccc(C(=O)C(=O)NCc2cccc3c2CN(C2CCC(=O)NC2=O)C3=O)c1` (stereo not shown) [Compound I-46, 2-(3-(tert-butyl)phenyl)-N-((2-(2,6-dioxopiperidin-3-yl)-1-oxoisoindolin-4-yl)methyl)-2-oxoacetamide], the cytotoxicity at 1 µM was in the range of 25 to 50%.
For the molecule `CN(Cc1cccc2c1CN(C1CCC(=O)NC1=O)C2=O)C(=O)C(=O)c1ccc(C(C)(C)C)cc1` (stereo not shown) [Compound I-47, 2-(4-(tert-butyl)phenyl)-N-((2-(2,6-dioxopiperidin-3-yl)-1-oxoisoindolin-4-yl)methyl)-N-methyl-2-oxoacetamide], the cytotoxicity at 1 µM was < 25%.
In the case of `CC(C)(C)c1ccc(C(=O)C(=O)NCc2cccc3c2C(=O)N(C2CCC(=O)NC2=O)C3=O)cc1` (stereo not shown) [Compound I-48, 2-(4-(tert-butyl)phenyl)-N-((2-(2,6-dioxopiperidin-3-yl)-1,3-dioxoisoindolin-4-yl)methyl)-2-oxoacetamide], the cytotoxicity at 1 µM is < 25%.
Take `CC(C)[C@@H](N)C(=O)OCN1C(=O)CCC(N2Cc3c(CNC(=O)C(=O)c4ccc(C(C)(C)C)cc4)cccc3C2=O)C1=O` (stereo partly drawn) [Compound I-49, (2R)-(3-(4-((2-(4-(tert-butyl)phenyl)-2-oxoacetamido)methyl)-1-oxoisoindolin-2-yl)-2,6-dioxopiperidin-1-yl)methyl 2-amino-3-methylbutanoate]: the cytotoxicity at 1 µM was in the range of 50 to 80%.
As to `CC(C)(C)c1ccc(C(=O)C(=O)NCc2c(F)ccc3c2CN(C2CCC(=O)NC2=O)C3=O)cc1` (stereo not shown) [Compound I-50, 2-(4-(tert-butyl)phenyl)-N-((2-(2,6-dioxopiperidin-3-yl)-5-fluoro-1-oxoisoindolin-4-yl)methyl)-2-oxoacetamide], the cytotoxicity at 1 µM was < 25%.
For `CC(C)(C)c1ccc(C(=O)C(=O)NCc2c(F)c(F)cc3c2CN(C2CCC(=O)NC2=O)C3=O)cc1` (stereo not shown) [Compound I-51, 2-(4-(tert-butyl)phenyl)-N-((2-(2,6-dioxopiperidin-3-yl)-5,6-difluoro-1-oxoisoindolin-4-yl)methyl)-2-oxoacetamide], the cytotoxicity at 1 µM is < 25%.
On to `O=C1CCC(N2Cc3cc(CCNC(=O)C(=O)c4ccc(C5(C(F)(F)F)CC5)cc4)ccc3C2=O)C(=O)N1` (stereo not shown) [Compound I-52, N-(2-(2-(2,6-Dioxopiperidin-3-yl)-1-oxoisoindolin-5-yl)ethyl)-2-oxo-2-(4-(1-(trifluoromethyl)cyclopropyl)phenyl)acetamide], for which the cytotoxicity at 1 µM fell in the range of 25 to 50%.
Take `Cc1ccc(C(=O)C(=O)NCc2ccc3c(c2)CN(C2CCC(=O)NC2=O)C3=O)cc1Cl` (stereo not shown) [Compound I-53, 2-(3-chloro-4-methylphenyl)-N-((2-(2,6-dioxopiperidin-3-yl)-1-oxoisoindolin-5-yl)methyl)-2-oxoacetamide]: the cytotoxicity at 1 µM is > 80%.
With `Cc1cc(C(=O)C(=O)NCc2cccc3c2CN(C2CCC(=O)NC2=O)C3=O)ccc1C(C)(C)C` (stereo not shown) [Compound I-54, 2-(3-methyl-4-(tert-butyl)phenyl)-N-((2-(2,6-dioxopiperidin-3-yl)-1-oxoisoindolin-4-yl)methyl)-2-oxoacetamide], the cytotoxicity at 1 µM is > 80%.
The same measure, in the same setting: to `Cc1cc(C(=O)C(=O)NCc2ccc3c(c2)CN(C2CCC(=O)NC2=O)C3=O)ccc1C(C)(C)C` (stereo not shown) [Compound I-55, 2-(3-methyl-4-(tert-butyl)phenyl)-N-((2-(2,6-dioxopiperidin-3-yl)-1-oxoisoindolin-5-yl)methyl)-2-oxoacetamide] belongs > 80%.
With `CC(C)(C)c1ccc(C(=O)C(=O)Nc2cccc3c2CN(C2CCC(=O)NC2=O)C3=O)cc1` (stereo not shown) [Compound I-56, 2-(4-(tert-butyl)phenyl)-N-(2-(2,6-dioxopiperidin-3-yl)-1-oxoisoindolin-4-yl)-2-oxoacetamide], the cytotoxicity at 1 µM is < 25%.
As to `O=C1CCC(N2Cc3c(NC(=O)C(=O)c4ccc(C5(C(F)(F)F)CC5)cc4)cccc3C2=O)C(=O)N1` (stereo not shown) [Compound I-57, N-(2-(2,6-dioxopiperidin-3-yl)-1-oxoisoindolin-4-yl)-2-oxo-2-(4-(1-(trifluoromethyl)cyclopropyl)phenyl)acetamide], the cytotoxicity at 1 µM is < 25%.
In the case of `O=C1CCC(N2C(=O)c3cccc(CNC(=O)C(=O)c4ccc(C5(C(F)(F)F)CC5)cc4)c3C2=O)C(=O)N1` (stereo not shown) [Compound I-58, N-((2-(2,6-dioxopiperidin-3-yl)-1,3-dioxoisoindolin-4-yl)methyl)-2-oxo-2-(4-(1-(trifluoromethyl)cyclopropyl)phenyl)acetamide], the cytotoxicity at 1 µM is 50 to 80%.
`CC(C)c1ccc(C(=O)C(=O)NCc2cccc3c2CN(C2CCC(=O)NC2=O)C3=O)s1` (stereo not shown) [Compound I-59, N-((2-(2,6-dioxopiperidin-3-yl)-1-oxoisoindolin-4-yl)methyl)-2-(5-isopropylthiophen-2-yl)-2-oxoacetamide]: the cytotoxicity at 1 µM lay in the range of 25 to 50%.
In the case of `Cc1c(CNC(=O)C(=O)c2ccc(C3(C(F)(F)F)CC3)cc2)ccc2c1CN(C1CCC(=O)NC1=O)C2=O` (stereo not shown) [Compound I-60, N-((2-(2,6-dioxopiperidin-3-yl)-4-methyl-1-oxoisoindolin-5-yl)methyl)-2-oxo-2-(4-(1-(trifluoromethyl)cyclopropyl)phenyl)acetamide], the cytotoxicity at 1 µM was 50 to 80%.
As for `CC(C)(C)C1CCN(C(=O)C(=O)NCc2cccc3c2CN(C2CCC(=O)NC2=O)C3=O)CC1` (stereo not shown) [Compound I-61, 2-(4-(tert-butyl)piperidin-1-yl)-N-((2-(2,6-dioxopiperidin-3-yl)-1-oxoisoindolin-4-yl)methyl)-2-oxoacetamide], the cytotoxicity at 1 µM is < 25%.
